Experimental data published in PMC11149917, “Translational and Therapeutic Evaluation of RAS-GTP Inhibition by RMC-6236 in RAS-Driven Cancers” (Cancer Discovery, 2024).
Like-named read-outs stand apart in the source and are kept apart here.

Assay: Mouse blood and tissue PK (LC/MS-MS)
Assay type: in vivo
Conditions: for Kp: tumor relative to whole blood
Method: For single-dose PKPD study, mice were randomized and assigned into groups (n = 3/dose/time point). […] Blood and tissues, including the tumor, brain, colon, ear skin, and muscle, were harvested at indicated time points. […] The whole blood, tumor, brain, colon, and ear skin concentrations of RMC-6236 were determined using liquid chromatography–tandem mass spectrometry (LC/MS-MS) methods. […] After thorough mixing and centrifugation, the supernatant was diluted with water or directly analyzed on a Sciex 5500 or Sciex 6500+ triple quadrupole mass spectrometer equipped with an ACQUITY or Shimadzu UPLC system. […] Bioanalysis on blood and tissue samples from xenograft models was run at Pharmaron and Wuxi AppTec. Concentrations reported as below the quantification limit were treated as zero for PK analysis. PK parameters were calculated by noncompartmental analysis of the concentration–time profiles using Phoenix WinNonLin (version 8.3 Certara). Apparent terminal elimination half-life (t1/2) values were calculated as ln(2)/k, where k represents the terminal elimination rate constant. Area under the concentration–time curve (AUC) values were estimated using a linear trapezoidal method. AUClast values were calculated from the dosing time to the last quantifiable concentration. Maximum concentration (Cmax) was recorded as observed.

[1] = NCI-H2122 (25 mg/kg), single dose

Question: Which “Tumor AUClast” value [1] does the source give for CCn1c(-c2cc(N3CCN(C)CC3)cnc2[C@H](C)OC)c2c3cc(ccc31)-c1csc(n1)C[C@H](NC(=O)[C@H]1C[C@@H]1C)C(=O)N1CCC[C@H](N1)C(=O)OCC(C)(C)C2 [RMC-6236] here?
Answer: 50057 ng·h/mL

Question: And the “Tumor Cmax” value [1]?
Answer: 3350 ng/mL

Question: What about the “Brain Cmax” value (Naïve Mice #1 (10 mg/kg), single dose) of the same molecule?
Answer: 25 ng/mL

Question: And the “Brain Cmax” value (Naïve Mice #1 (50 mg/kg), single dose)?
Answer: 161 ng/mL

Question: What about the concentration at 4 h (mouse, ear skin, oral, 25 mg/kg, sheet Ear Skin, model KP-4, study KP-4 #5, 25 mg/kg, read-out: RMC-6236 (nM) Tumor) of the same molecule?
Answer: 2790 nM

Question: And the concentration at 8 h (mouse, ear skin, oral, 25 mg/kg, sheet Ear Skin, model KP-4, study KP-4 #5, 25 mg/kg, 8h, read-out: RMC-6236 (nM) Tumor)?
Answer: 1610 nM

Question: And the concentration at 48 h (mouse, ear skin, oral, 25 mg/kg, sheet Ear Skin, model KP-4, study KP-4 #5, 25 mg/kg, 48h, read-out: RMC-6236 (nM) Tumor)?
Answer: 221 nM

Question: And the Kp (mouse, oral, 3 mg/kg, NCI-H441 (3 mg/kg), single dose, read-out: Tumor/Blood AUC Ratio)?
Answer: 5.4

Question: And the Kp (mouse, oral, 10 mg/kg, NCI-H441 (10 mg/kg), single dose, read-out: Tumor/Blood AUC Ratio)?
Answer: 4.6

Question: What about the Kp (mouse, oral, 25 mg/kg, HPAC (25 mg/kg), single dose, read-out: Tumor/Blood AUC Ratio) of the same molecule?
Answer: 6.6

Question: What about the Kp (mouse, oral, 25 mg/kg, KP-4 (25 mg/kg), single dose, read-out: Tumor/Blood AUC Ratio) of the same molecule?
Answer: 6.4

Question: And the Kp (mouse, oral, 25 mg/kg, NCI-H358 (25 mg/kg), single dose, read-out: Tumor/Blood AUC Ratio)?
Answer: 5.9

Question: What about the Kp (mouse, oral, 25 mg/kg, NCI-H441 #2 (25 mg/kg), QD x 10 days, read-out: Tumor/Blood AUC Ratio) of the same molecule?
Answer: 4.9

Question: And the Kp (mouse, oral, 25 mg/kg, NCI-H441 (25 mg/kg), single dose, read-out: Tumor/Blood AUC Ratio)?
Answer: 6.1

Question: And the Kp (mouse, oral, 25 mg/kg, NCI-H2122 (25 mg/kg), single dose, read-out: Tumor/Blood AUC Ratio)?
Answer: 6.3

Question: And the Kp (mouse, oral, various xenograft tumors, read-out: exposure in xenograft tumors relative to blood)?
Answer: 3 to 7

Question: What about the concentration at 8 h (mouse, tumor, oral, 0.3 mg/kg, HPAC #11, 0.3 mg/kg, 8h, individual animals, read-out: RMC-6236 (nM) Tumor) of the same molecule?
Answer: 37 nM

Question: What about the concentration at 24 h (mouse, tumor, oral, 0.3 mg/kg, NCI-H441 xenograft tumor, study NCI-H441#10, 0.3 mg/kg, 24h, read-out: RMC-6236 (nM) Tumor) of the same molecule?
Answer: 36.8 nM

Question: And the concentration at 8 h (mouse, tumor, oral, 0.3 mg/kg, NCI-H441 xenograft tumor, study NCI-H441#13, 0.3 mg/kg, 8h, read-out: RMC-6236 (nM) Tumor)?
Answer: 89.5 nM

Question: And the concentration at 8 h (mouse, tumor, oral, 1 mg/kg, HPAC #11, 1 mg/kg, 8h, individual animals, read-out: RMC-6236 (nM) Tumor)?
Answer: 216 nM

Question: And the concentration at 8 h (mouse, tumor, oral, 1 mg/kg, NCI-H441 xenograft tumor, study NCI-H441#10, 1 mg/kg, 8h, read-out: RMC-6236 (nM) Tumor)?
Answer: 129 nM

Question: What about the concentration at 8 h (mouse, tumor, oral, 1 mg/kg, NCI-H441 xenograft tumor, study NCI-H441#13, 1 mg/kg, 8h, read-out: RMC-6236 (nM) Tumor) of the same molecule?
Answer: 114 nM

Question: And the concentration at 24 h (mouse, tumor, oral, 1 mg/kg, NCI-H441 xenograft tumor, study NCI-H441#13, 1 mg/kg, 24h, read-out: RMC-6236 (nM) Tumor)?
Answer: 53.2 nM

Question: What about the concentration at 8 h (mouse, tumor, oral, 3 mg/kg, HPAC #4, 3 mg/kg, 8h, individual animals, read-out: RMC-6236 (nM) Tumor) of the same molecule?
Answer: 245 nM

Question: And the concentration at 24 h (mouse, tumor, oral, 3 mg/kg, HPAC #4, 3 mg/kg, 24h, individual animals, read-out: RMC-6236 (nM) Tumor)?
Answer: 205 nM

Question: And the concentration at 48 h (mouse, tumor, oral, 3 mg/kg, HPAC #4, 3 mg/kg, 48h, individual animals, read-out: RMC-6236 (nM) Tumor)?
Answer: 31.9 nM

Question: And the concentration at 4 h (mouse, tumor, oral, 3 mg/kg, KP-4, study KP-4 #6, 3 mg/kg, read-out: RMC-6236 (nM) Tumor)?
Answer: 264 nM

Question: What about the concentration at 8 h (mouse, tumor, oral, 3 mg/kg, KP-4, study KP-4 #6, 3 mg/kg, 8h, read-out: RMC-6236 (nM) Tumor) of the same molecule?
Answer: 340 nM

Question: And the concentration at 12 h (mouse, tumor, oral, 3 mg/kg, KP-4, study KP-4 #6, 3 mg/kg, 12h, read-out: RMC-6236 (nM) Tumor)?
Answer: 298 nM

Question: What about the concentration at 48 h (mouse, tumor, oral, 3 mg/kg, KP-4, study KP-4 #6, 3 mg/kg, 48h, read-out: RMC-6236 (nM) Tumor) of the same molecule?
Answer: 29 nM

Question: What about the concentration at 24 h (mouse, tumor, oral, 3 mg/kg, NCI-H441 xenograft tumor, study NCI-H441#6, 3 mg/kg, 24h, read-out: RMC-6236 (nM) Tumor) of the same molecule?
Answer: 159 nM

Question: And the concentration at 48 h (mouse, tumor, oral, 3 mg/kg, NCI-H441 xenograft tumor, study NCI-H441#6, 3 mg/kg, 48h, read-out: RMC-6236 (nM) Tumor)?
Answer: 63 nM

Question: And the concentration at 4 h (mouse, tumor, oral, 10 mg/kg, HPAC #4, 10 mg/kg, individual animals, read-out: RMC-6236 (nM) Tumor)?
Answer: 817 nM

Question: And the concentration at 8 h (mouse, tumor, oral, 10 mg/kg, HPAC #4, 10 mg/kg, 8h, individual animals, read-out: RMC-6236 (nM) Tumor)?
Answer: 1230 nM

Question: And the concentration at 24 h (mouse, tumor, oral, 10 mg/kg, HPAC #4, 10 mg/kg, 24h, individual animals, read-out: RMC-6236 (nM) Tumor)?
Answer: 300 nM

Question: What about the concentration at 48 h (mouse, tumor, oral, 10 mg/kg, HPAC #4, 10 mg/kg, 48h, individual animals, read-out: RMC-6236 (nM) Tumor) of the same molecule?
Answer: 128 nM

Question: And the concentration at 48 h (mouse, tumor, oral, 10 mg/kg, KP-4, study KP-4 #6, 10 mg/kg, 48h, read-out: RMC-6236 (nM) Tumor)?
Answer: 235 nM

Question: And the concentration at 1 h (mouse, tumor, oral, 10 mg/kg, Model Validation Dataset, 10mg/kg_study6, 1 h, read-out: Tumor Concentration)?
Answer: 340 nM

Question: And the concentration at 8 h (mouse, tumor, oral, 10 mg/kg, Model Validation Dataset, 10mg/kg_study6, 8 h, read-out: Tumor Concentration)?
Answer: 1010 nM

Question: What about the concentration at 24 h (mouse, tumor, oral, 10 mg/kg, Model Validation Dataset, 10mg/kg_study6, 24 h, read-out: Tumor Concentration) of the same molecule?
Answer: 353 nM

Question: And the concentration at 48 h (mouse, tumor, oral, 10 mg/kg, Model Validation Dataset, 10mg/kg_study6, 48 h, read-out: Tumor Concentration)?
Answer: 214 nM

Question: And the concentration at 8 h (mouse, tumor, oral, 10 mg/kg, NCI-H441 xenograft tumor, study NCI-H441#6, 10 mg/kg, 8h, read-out: RMC-6236 (nM) Tumor)?
Answer: 904 nM

Question: What about the concentration at 24 h (mouse, tumor, oral, 10 mg/kg, NCI-H441 xenograft tumor, study NCI-H441#6, 10 mg/kg, 24h, read-out: RMC-6236 (nM) Tumor) of the same molecule?
Answer: 519 nM

Question: What about the concentration at 48 h (mouse, tumor, oral, 10 mg/kg, NCI-H441 xenograft tumor, study NCI-H441#6, 10 mg/kg, 48h, read-out: RMC-6236 (nM) Tumor) of the same molecule?
Answer: 213 nM

Question: What about the concentration at 8 h (mouse, tumor, oral, 10 mg/kg, NCI-H441 xenograft tumor, study NCI-H441#10, 10 mg/kg, 8h, read-out: RMC-6236 (nM) Tumor) of the same molecule?
Answer: 685 nM

Question: And the concentration at 24 h (mouse, tumor, oral, 10 mg/kg, NCI-H441 xenograft tumor, study NCI-H441#10, 10 mg/kg, 24h, read-out: RMC-6236 (nM) Tumor)?
Answer: 541 nM

Question: And the concentration at 48 h (mouse, tumor, oral, 10 mg/kg, NCI-H441 xenograft tumor, study NCI-H441#10, 10 mg/kg, 48h, read-out: RMC-6236 (nM) Tumor)?
Answer: 153 nM
